Measured values reported in patent publication US10065941B2, “Aminotriazine derivative and pharmaceutical composition comprising the same” (Shionogi & Co., Ltd., priority 2013, dated 2018).

Biological target: human P2X3 receptor (Homo sapiens (Human), UniProt P56373)
Experiment: Evaluation of human P2X3 receptor inhibitory activity (Test Example 1)
Type: cell-based
Details: C6BU-1 cell transfected with human P2X3 receptor gene, FLIPR 384
Outline: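 C6BU-1 cells stably expressing human P2X3, loaded with 4 μM Fluo-3-AM 1 h at 37 °C, preincubated 5 min with test compound, then stimulated with 150 nM ATP solution (stock, pre-dispense) and monitored by FLIPR for 4 min. IC50 derived from maximum fluorescence ratio (post-ATP peak over baseline).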

Chain of human P2X3 receptor (P56373 whole entry): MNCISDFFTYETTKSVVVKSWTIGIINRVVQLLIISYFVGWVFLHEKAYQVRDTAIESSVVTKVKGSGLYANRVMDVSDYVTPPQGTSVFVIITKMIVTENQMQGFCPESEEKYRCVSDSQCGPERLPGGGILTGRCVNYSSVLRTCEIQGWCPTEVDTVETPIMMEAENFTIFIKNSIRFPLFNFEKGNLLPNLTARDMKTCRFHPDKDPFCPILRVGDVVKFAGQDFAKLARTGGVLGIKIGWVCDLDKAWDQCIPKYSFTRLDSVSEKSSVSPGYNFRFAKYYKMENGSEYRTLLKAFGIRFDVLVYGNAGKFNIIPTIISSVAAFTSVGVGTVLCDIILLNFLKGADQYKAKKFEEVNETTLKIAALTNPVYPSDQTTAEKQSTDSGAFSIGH

| Compound | IC50 [nM] |
| --- | --- |
| CCOC(=O)C[C@H](O)Cn1c(=O)[nH]/c(=N\c2ccc(OC(C)C)c(Cl)c2)n(Cc2ccc(Cl)cc2)c1=O [Compound R-171] | 33 |
| C[C@@H](C(=O)O)[C@H](C)n1c(=O)[nH]/c(=N\c2ccc(Oc3cnc(C#N)cn3)cc2)n(Cc2ccc(Cl)cc2)c1=O [Compound R-224] | 12 |
| C[C@@H](Cn1c(=O)[nH]/c(=N\c2ccc(Oc3cccnc3)cc2)n(Cc2ccc(Cl)cc2)c1=O)C(=O)O [Compound R-207] | 9 |
| COC(=O)[C@@H](Cn1c(=O)[nH]/c(=N\c2ccc(Oc3ccccn3)cc2)n(Cc2ccc(Cl)cc2)c1=O)OC [Compound I-203] | 3 |
| C[C@@H](Cn1c(=O)[nH]/c(=N\c2ccc(Oc3cnccn3)c(F)c2)n(Cc2ccc(Cl)cc2)c1=O)C(=O)O [Compound R-055] | 7 |
| COC(=O)[C@H](C)[C@H](C)n1c(=O)[nH]/c(=N\c2ccc(Oc3cc(C)ccn3)cc2)n(Cc2ccc(Cl)cc2)c1=O [Compound I-107] | 31 |
| COC(=O)[C@@H](C)Cn1c(=O)[nH]/c(=N\c2ccc(Oc3cccc(CO)n3)cc2)n(Cc2ccc(Cl)cc2)c1=O [Compound I-245] | 14 |
| COC(=O)CCn1c(=O)[nH]/c(=N\c2ccc(Oc3ccccn3)c(Cl)c2)n(Cc2ccc(C)cc2)c1=O [Compound R-301] | 5 |
| CCOC(=O)[C@H]1C[C@H](n2c(=O)[nH]/c(=N\c3ccc(Oc4ccccn4)cc3)n(Cc3ccc(C)cc3)c2=O)C1 [Compound I-180] | 5 |
| O=C(O)CCn1c(=O)[nH]/c(=N\c2ccc(Oc3cccc(F)n3)cc2)n(Cc2ccc(CF)cc2)c1=O [Compound R-275] | 23 |
| COC(=O)[C@@H](C)Cn1c(=O)[nH]/c(=N\c2ccc(Oc3ccc(F)cn3)cc2)n(CC2CC3(CCC3)C2)c1=O [Compound I-269] | 4 |
| COC(=O)C(C)(C)Cn1c(=O)[nH]/c(=N\c2ccc(Oc3cccnn3)c(F)c2)n(Cc2ccc(Cl)cc2)c1=O [Compound R-034] | 5 |
| COC(=O)[C@H](C)[C@H](C)n1c(=O)[nH]/c(=N\c2ccc(Oc3ccc(F)cn3)c(F)c2)n(Cc2ccc(Cl)cc2)c1=O [Compound I-001] | 44 |
| C[C@@H](Cn1c(=O)[nH]/c(=N\c2ccc(OC3CCC3)c(F)c2)n(Cc2ccc(Cl)cc2)c1=O)C(=O)O [Compound R-076] | 13 |
| Cc1ccnc(Oc2ccc(/N=c3\[nH]c(=O)n(C[C@H](C)C(=O)O)c(=O)n3Cc3ccc(Cl)cc3)cc2)c1 [Compound I-080] | 10 |
| COC(=O)[C@@H](C)Cn1c(=O)[nH]/c(=N\c2ccc(N3CCOCC3)c(C)c2)n(Cc2ccc(Cl)cc2)c1=O [Compound R-101] | 201 |
| COc1cc(Oc2ccc(/N=c3\[nH]c(=O)n(C[C@H](C)C(=O)O)c(=O)n3Cc3ccc(Cl)cc3)cc2)cc(F)n1 [Compound R-058] | 4 |
| CC(C)(Cn1c(=O)[nH]/c(=N\c2ccc(Oc3ccc(F)cn3)cc2)n(Cc2ccc(Cl)cc2)c1=O)C(=O)O [Compound I-005] | 8 |
| COC(=O)[C@H](C)[C@H](C)n1c(=O)[nH]/c(=N\c2ccc(Oc3ccccn3)c(C)c2)n(Cc2ccc(Cl)cc2)c1=O [Compound I-226] | 38 |
| C[C@@H](Cn1c(=O)[nH]/c(=N\c2ccc(Oc3ccccn3)cc2)n(Cc2ccc(Cl)s2)c1=O)C(=O)O [Compound I-273] | 5 |
| CCOC(=O)[C@H]1C[C@@H](Oc2ccc(/N=c3\[nH]c(=O)n(CC)c(=O)n3Cc3ccc(Cl)cc3)cc2)C1 [Compound R-062] | 318 |
| CCn1c(=O)[nH]/c(=N\c2ccc(Oc3ccc(C(=O)O)c(Cl)n3)cc2)n(Cc2ccc(Cl)cc2)c1=O [Compound R-066] | 58 |
| COC(=O)[C@@H](C)Cn1c(=O)[nH]/c(=N\c2ccc(Oc3cccc(C(F)(F)F)n3)cc2)n(Cc2ccc(C)cc2)c1=O [Compound I-035] | 12 |
| Cc1ccnc(Oc2ccc(/N=c3\[nH]c(=O)n([C@@H](C)[C@@H](C)C(=O)O)c(=O)n3Cc3ccc(Cl)cc3)cc2)c1 [Compound I-111] | 9 |
